This note sets out measurements from PubChem BioAssay (NCI).

Test systems include 786-0 renal; NCI/ADR-RES ovarian; OVCAR-3 ovarian; LOX IMVI melanoma; HCT-116 colon; SF-295 CNS; NCI-H522 lung; SK-MEL-5 melanoma; MCF7 breast; HOP-62 NSCLC.
Holding throughout (experiment): NCI tumour cell line growth inhibition, 48 h

Each structure is given as a SMILES string. Where “and” joins values, the source holds several entries; their conditions need not be identical. Equal values may be shown once.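 Each compound was tested at five concentrations against cells in 96-well plates for 48 hours. GI50 marks 50% less growth. TGI is the concentration that stops growth completely.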 Where a SMILES comes first, the peptide text is derived from it. [ ]: non-standard residue; d: D form. The star is where a group is joined. ξ: configuration not given here. 4Abz = Nc1ccc(C(=O)O)cc1; ξL = CC(C)CC(N)C(=O)O; NHOH = ON*

As for `CC(C)CC(NC(=O)[C@@H]1CCCN1C(=O)CNC(=O)c1ccc(N)cc1)C(=O)N[C@H](C)C(=O)NO` (stereo not given in full) (H-[4Abz]GP[ξL][dA]-{NHOH}), the GI50 in the assay with 786-0 renal, in the assay with NCI/ADR-RES ovarian, in the assay on OVCAR-3 ovarian, in the assay with LOX IMVI melanoma, in the assay on HCT-116 colon and in the assay on SF-295 CNS was greater than 100 µM in each case. Also, the GI50 in the assay with NCI-H522 lung, with SK-MEL-5 melanoma, in the assay on MCF7 breast and in the assay on HOP-62 NSCLC was greater than 100 µM each time. For the same compound, the TGI in the assay on 786-0 renal, in the assay on NCI/ADR-RES ovarian, in the assay with OVCAR-3 ovarian, in the assay on LOX IMVI melanoma, in the assay with HCT-116 colon and with SF-295 CNS was greater than 100 µM throughout. Further, the TGI in the assay with NCI-H522 lung, with SK-MEL-5 melanoma, in the assay on MCF7 breast and in the assay with HOP-62 NSCLC was greater than 100 µM in each case.

Regarding `Cc1cc(C)c2nc(Nc3nc(C)c(C)c(=O)[nH]3)nc(C)c2c1`, the GI50 in the assay with 786-0 renal is 2.4 µM; with NCI/ADR-RES ovarian, 4.12 µM; in the assay on OVCAR-3 ovarian, 3.59 µM; with LOX IMVI melanoma, 1.92 µM; in the assay with HCT-116 colon, 2.94 µM; in the assay with SF-295 CNS, 2.29 µM. Moreover, the GI50 with NCI-H522 lung is 1.63 µM; in the assay with SK-MEL-5 melanoma, 3.06 µM; with MCF7 breast it was 2.14 µM; with HOP-62 NSCLC it was 1.96 µM. Further, the TGI with 786-0 renal was 12.3 µM; in the assay with NCI/ADR-RES ovarian it was 57.3 µM; in the assay with OVCAR-3 ovarian it was 13.1 µM; in the assay on LOX IMVI melanoma it was 5.38 µM; in the assay with HCT-116 colon, 12.9 µM; in the assay with SF-295 CNS, 6.44 µM. The TGI came out at 6.33 µM in the assay on NCI-H522 lung, 11.8 µM in the assay on SK-MEL-5 melanoma, 10.7 µM with MCF7 breast and 8.82 µM in the assay on HOP-62 NSCLC.

On to `O=C1CCc2cc([N+](=O)[O-])ccc2O1`, for which the TGI in the assay on 786-0 renal, in the assay with NCI/ADR-RES ovarian, in the assay on OVCAR-3 ovarian, with LOX IMVI melanoma, in the assay with HCT-116 colon and with SF-295 CNS was greater than 100 µM throughout. The TGI in the assay with NCI-H522 lung, with SK-MEL-5 melanoma, with MCF7 breast and in the assay with HOP-62 NSCLC was greater than 100 µM each time.

Consider `COc1cc(Oc2cnc3cc(N)cc(N)c3n2)cc(OC)c1OC`, for which the GI50 was 33 µM in the assay with 786-0 renal; 30.6 µM with NCI/ADR-RES ovarian; 26.8 µM with OVCAR-3 ovarian; 33.4 µM in the assay with LOX IMVI melanoma; 19.6 µM with HCT-116 colon; 74.4 µM in the assay with SF-295 CNS. Further, the GI50 with NCI-H522 lung was greater than 100 µM; in the assay with SK-MEL-5 melanoma, 39.5 µM; in the assay on MCF7 breast, 35.4 µM; in the assay with HOP-62 NSCLC, 48.1 µM. In addition, the TGI in the assay on 786-0 renal is greater than 100 µM; in the assay with NCI/ADR-RES ovarian, greater than 100 µM; with OVCAR-3 ovarian, greater than 100 µM; in the assay on LOX IMVI melanoma, greater than 100 µM; in the assay on HCT-116 colon, 42.8 µM; in the assay on SF-295 CNS, greater than 100 µM. The TGI with NCI-H522 lung, with SK-MEL-5 melanoma, in the assay with MCF7 breast and in the assay on HOP-62 NSCLC was greater than 100 µM in each case.

As to `CCCCCc1c(C)[nH]c(/C=C2\N=C(c3ccc[nH]3)C=C2Oc2ccc(OC)cc2)c1C`, the GI50 with 786-0 renal is 0.141 µM and 0.0404 µM; with NCI/ADR-RES ovarian it was 0.37 µM and 0.203 µM; in the assay on OVCAR-3 ovarian it was 0.156 µM and 0.0414 µM; in the assay on LOX IMVI melanoma, 0.0406 µM and 0.0197 µM; in the assay on HCT-116 colon, 0.0373 µM and 0.0269 µM; in the assay on SF-295 CNS, 0.18 µM and 0.0775 µM. Also, the GI50 in the assay with NCI-H522 lung is 0.0135 µM; in the assay on SK-MEL-5 melanoma, 0.0844 µM and 0.0187 µM; in the assay on MCF7 breast, 0.0667 µM and 0.0358 µM; in the assay on HOP-62 NSCLC, 0.159 µM and 0.0768 µM. In addition, the TGI with 786-0 renal is 0.328 µM and 0.315 µM; in the assay on NCI/ADR-RES ovarian, 2.13 µM and 1.14 µM; in the assay with OVCAR-3 ovarian, 0.511 µM and 0.318 µM; in the assay on LOX IMVI melanoma, 0.289 µM and 0.0534 µM; in the assay with HCT-116 colon, 1.13 µM and 0.127 µM; in the assay with SF-295 CNS, 0.735 µM and 0.437 µM. Besides, the TGI in the assay on NCI-H522 lung was 0.19 µM; with SK-MEL-5 melanoma it was 0.217 µM and 0.0466 µM; in the assay with MCF7 breast, 1.21 µM and 1.15 µM; in the assay with HOP-62 NSCLC, 1.69 µM and 1.49 µM.

Turning to `COc1ccc(-n2cc(-c3ccc(Cl)cc3)[nH]c2=S)cc1Cl`, the GI50 with 786-0 renal was 20 µM; with NCI/ADR-RES ovarian, 42.2 µM; in the assay on OVCAR-3 ovarian it was 31.8 µM; in the assay with LOX IMVI melanoma, 94 µM; in the assay on HCT-116 colon it was 47.2 µM; in the assay with SF-295 CNS, 22 µM. In addition, the GI50 in the assay on NCI-H522 lung was 59.4 µM; in the assay on SK-MEL-5 melanoma, 42.1 µM; in the assay with MCF7 breast, 34.3 µM; in the assay with HOP-62 NSCLC, 32.4 µM. In addition, the TGI with 786-0 renal is 41.4 µM; in the assay with NCI/ADR-RES ovarian it was greater than 100 µM; in the assay with OVCAR-3 ovarian, greater than 100 µM; in the assay on LOX IMVI melanoma, greater than 100 µM; in the assay on HCT-116 colon, greater than 100 µM; with SF-295 CNS, 57.7 µM. Moreover, the TGI in the assay on NCI-H522 lung was greater than 100 µM; in the assay with SK-MEL-5 melanoma, greater than 100 µM; in the assay on MCF7 breast, greater than 100 µM; in the assay with HOP-62 NSCLC, 92.2 µM.

Take `COc1ccc(CNCCN2C(=O)c3ccc4c5c(ccc(c35)C2=O)C(=O)N(CCNCc2ccc(OC)cc2)C4=O)cc1`: the GI50 with 786-0 renal is 1.17 µM; in the assay on NCI/ADR-RES ovarian, 0.288 µM; with OVCAR-3 ovarian it was 0.159 µM; in the assay on LOX IMVI melanoma it was 0.195 µM; with HCT-116 colon, 0.147 µM; with SF-295 CNS, 0.418 µM. The GI50 in the assay on NCI-H522 lung is 0.413 µM; with SK-MEL-5 melanoma, 0.15 µM; with MCF7 breast, 0.181 µM; in the assay with HOP-62 NSCLC, 0.579 µM. In addition, the TGI in the assay on 786-0 renal is 2.49 µM; with NCI/ADR-RES ovarian it was 1.21 µM; with OVCAR-3 ovarian it was 0.573 µM; in the assay on LOX IMVI melanoma, 0.583 µM; in the assay on HCT-116 colon, 0.688 µM; in the assay with SF-295 CNS, 1.83 µM. Further, the TGI with NCI-H522 lung was 1.92 µM; in the assay on SK-MEL-5 melanoma, 0.285 µM; in the assay on MCF7 breast, 0.533 µM; in the assay with HOP-62 NSCLC it was 1.99 µM.

In the case of `O=C1c2cc(Br)ccc2-c2c1c1ccccc1c(=O)n2CCCCl`, the GI50 in the assay with 786-0 renal was 7.95 µM; in the assay on NCI/ADR-RES ovarian, 15.2 µM; in the assay with OVCAR-3 ovarian, 0.964 µM; with LOX IMVI melanoma, 8.56 µM; with HCT-116 colon it was 3.05 µM; in the assay on SF-295 CNS, 4.29 µM. Moreover, the GI50 with NCI-H522 lung was 39.8 µM; with SK-MEL-5 melanoma, 14.4 µM; with MCF7 breast, 1.61 µM; in the assay with HOP-62 NSCLC, 3.34 µM. Moreover, the TGI in the assay on 786-0 renal worked out at 26.2 µM; in the assay with NCI/ADR-RES ovarian, 60.1 µM; in the assay on OVCAR-3 ovarian it was 7.91 µM; in the assay on LOX IMVI melanoma, 61.3 µM; with HCT-116 colon it was 17.1 µM; in the assay with SF-295 CNS, 21.4 µM. For the same compound, the TGI in the assay with NCI-H522 lung is greater than 100 µM; with SK-MEL-5 melanoma, 77.7 µM; with MCF7 breast it was greater than 100 µM; in the assay with HOP-62 NSCLC, 17.8 µM.
